Activity change, negative = cytotoxicity data for 60 compounds are collected here from PubChem BioAssay AID687005 (Broad Institute, 2013).

Inconclusive results are not listed. The source made the active and inactive calls.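 How the source made its calls: active means Compounds that reduce signal, with fitted half-maximal dose at or under twice the top valid tested dose; inconclusive means Poor fit, or flat curve losing 30 to 70% of signal; inactive means Potency past limit, flat within 30%, or opposite direction.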

The first assay is described as follows: viability loss in HEK293T cells – cell-based, ATP luminescence, cherry-pick samples, cytotoxicity control, dose response (AID 687005). Conditions: HEK293T viability, ATP luminescence (CellTiter-Glo), 48 h; at 23.5 µM (top of the series). A general note: ATP-based viability assays read luminescence as a measure of living cells.
Turning to `CNC(=O)C[C@H]1CC[C@H]2[C@H](COc3ccc(NC(=O)c4cc(C)on4)cc3C(=O)N2C)O1`, the activity change, negative = cytotoxicity is -23.4% (inactive). Still for that read-out and setting: next, `C[C@H]1CN([C@@H](C)CO)C(=O)Cc2cc(NC(=O)Nc3ccccc3)ccc2O[C@@H]1CN(C)C(=O)Nc1ccc2c(c1)OCO2`: -18.7% (inactive); `C[C@H](CO)N1C[C@H](C)[C@H](CN(C)C(=O)Nc2cccc3ccccc23)Oc2ccc(NC(=O)Cc3ccccc3)cc2CC1=O`: 10.3% (inactive); `CCCNC(=O)C[C@@H]1CC[C@@H]2[C@@H](COc3ccc(NC(=O)CCC)cc3C(=O)N2C)O1`: 9.04% (inactive).

As to `C[C@@H]1CN([C@H](C)CO)C(=O)c2cc(NS(=O)(=O)c3ccccc3)ccc2O[C@H]1CN(C)C(=O)NC1CCCCC1`, the activity change, negative = cytotoxicity is -10.5% (inactive). Turning to `COc1ccc(CN(C)C[C@@H]2Oc3ccc(NS(C)(=O)=O)cc3CC(=O)N([C@H](C)CO)C[C@H]2C)cc1`, the activity change, negative = cytotoxicity was 1.11% (inactive). Still for that read-out and setting: next, `C[C@@H]1CCCCO[C@@H](CN(C)Cc2ccc(C(F)(F)F)cc2)[C@@H](C)CN([C@@H](C)CO)C(=O)c2cc(NS(=O)(=O)c3cn(C)cn3)ccc2O1`: -31.2% (inactive). With `C[C@H](CO)N1C[C@H](C)[C@@H](CN(C)C(=O)Nc2ccc(F)cc2)Oc2c(NS(=O)(=O)c3ccccc3)cccc2C1=O`, the activity change, negative = cytotoxicity is -4.44% (inactive).

Staying with this assay, now noted: HEK293T viability, ATP luminescence (CellTiter-Glo), 48 h; at 26 µM (top of the series).
For the compound `COc1cccc(-c2cn(CC[C@@H]3CC[C@@H](NC(C)=O)[C@H](CO)O3)nn2)c1`, the activity change, negative = cytotoxicity was 53.3% (inactive). In the case of `CCCNC(=O)N1[C@@H](CO)[C@@H](c2ccc(-c3ccccc3)cc2)[C@@H]1CNC(C)=O`, the activity change, negative = cytotoxicity is -1.66% (inactive). The same measure, in the same setting: next, `Cc1noc(C)c1S(=O)(=O)Nc1ccc2c(c1)C(=O)N([C@H](C)CO)C[C@@H](C)[C@H](CN(C)Cc1ccccc1)OCCCC[C@H](C)O2`: -2.05% (inactive). As to `Cc1cc(Cl)ccc1NC(=S)NCc1ccc(F)cc1`, the activity change, negative = cytotoxicity was 6.1% (inactive). The same measure, in the same setting: next, `C[C@H]1CN([C@@H](C)CO)C(=O)c2cccc(NS(=O)(=O)c3cn(C)cn3)c2O[C@@H]1CN(C)CC1CCCCC1`: -5.42% (inactive); `CCCC(=O)Nc1ccc2c(c1)OC[C@@H](C)N(Cc1ccccn1)C[C@@H](C)[C@H](OC)CN(C)C2=O`: 25.3% (inactive); `CCCN(C)C[C@@H]1OCCCC[C@H](C)Oc2ccc(NS(=O)(=O)c3ccc(C)cc3)cc2C(=O)N([C@H](C)CO)C[C@@H]1C`: 37.3% (inactive). Take `COC(=O)C1=C(C)N(Cc2ccc(Cl)cc2)C(=S)NC1c1cccc(OC)c1` (stereo not given): the activity change, negative = cytotoxicity is -34.3% (inactive). Same read-out and setting: next, `CO[C@H]1CN(C)C(=O)c2cc(NC(=O)c3ccccc3F)ccc2OC[C@H](C)N(C(C)=O)C[C@H]1C`: -16.7% (inactive); `O=C(NCc1ccc(F)cc1)C1C2C=CC3(CN(Cc4cccnc4)C(=O)C13)O2` (stereo not given): 9.79% (inactive). Same read-out and setting: next, `C/C=C/c1ccc([C@@H]2[C@@H](C#N)N(S(=O)(=O)c3cccc(F)c3)[C@@H]2CO)cc1`: 4.72% (inactive); `CCS(=O)(=O)N1CCCCN2[C@H](CO)[C@@H](c3ccc(-c4ccc(C#N)cc4)cc3)[C@@H]2C1`: 2.55% (inactive).

`O=C(C[C@H]1C=C[C@H](NC(=O)Nc2cc(F)ccc2F)[C@@H](CO)O1)NCCCN1CCOCC1`: the activity change, negative = cytotoxicity was 27.4% (inactive). In the case of `CC(C)NC(=O)Nc1ccc2c(c1)CC(=O)N([C@@H](C)CO)C[C@@H](C)[C@@H](CN(C)Cc1ccc(Oc3ccccc3)cc1)O2`, the activity change, negative = cytotoxicity is -58.4% (inactive). The same measure, in the same setting: next, `COc1ccc(CNC(=O)C[C@H]2CC[C@H]3[C@@H](COc4ccc(NC(=O)C5CC5)cc4C(=O)N3C)O2)cc1`: 26% (inactive).

On to `CC=Cc1ccc2n(c1=O)C[C@@H]1[C@@H](CO)[C@H](C(=O)NCc3ccc4c(c3)OCO4)[C@H]2N1C(=O)C1CC1` (mixture of isomers), for which the activity change, negative = cytotoxicity is -8.54% (inactive). Still for that read-out and setting: next, `C[C@@H]1CN([C@H](C)CO)C(=O)c2cc(NS(=O)(=O)c3ccc(Cl)cc3)ccc2O[C@H]1CN(C)S(=O)(=O)c1ccc(F)cc1`: 38.8% (inactive). For the compound `O=C(C[C@@H]1CC[C@@H](NC(=O)c2cccnc2)[C@@H](CO)O1)NCCN1CCCCC1`, the activity change, negative = cytotoxicity was -2.13% (inactive). Regarding `COc1ccccc1C(=O)Nc1ccc2c(c1)C(=O)N(C)C[C@@H](OC)[C@H](C)CN(C)[C@@H](C)CO2`, the activity change, negative = cytotoxicity is 0.103% (inactive). Still for that read-out and setting: next, `COc1ccc(OC(C)C(=O)NC(C)c2ccccc2)cc1` (stereo not given): -8.71% (inactive); `C[C@H](CO)N1C[C@H](C)[C@H](CN(C)C(=O)NC2CCCCC2)OCCCC[C@H](C)Oc2ccc(NC(=O)C3CCCCC3)cc2C1=O`: 15% (inactive); `CC(C)NC(=O)Nc1ccc2c(c1)C(=O)N([C@@H](C)CO)C[C@@H](C)[C@@H](CN(C)C(=O)NC(C)C)OCCCC[C@@H](C)O2`: 20.5% (inactive).

As for `O=C1CCC(C(=O)Nc2cccc3ccccc23)N1` (stereo not given), the activity change, negative = cytotoxicity was 25.1% (inactive). The same measure, in the same setting: next, `CO[C@H](CN(C)Cc1cc(F)ccc1F)[C@@H](C)CN([C@@H](C)CO)S(=O)(=O)c1ccc(F)cc1`: 14.8% (inactive). The same measure, in the same setting: next, `O=C(c1ccco1)N1N=C(c2cccs2)CC1c1ccc(F)cc1` (stereo not given): -39% (inactive); `C[C@H]1CN([C@@H](C)CO)C(=O)c2cc(NC(=O)CCN3CCOCC3)ccc2O[C@@H]1CN(C)Cc1ccc(C(=O)O)cc1`: 36.2% (inactive). Same read-out and setting: next, `C[C@H]1CN([C@@H](C)CO)C(=O)c2cc(-c3ccc(F)cc3)cnc2O[C@@H]1CN(C)CC1CCCCC1`: -16.9% (inactive); `CCC(=O)N1C[C@H](O)COC[C@@H]2O[C@@H](CC(=O)NCc3ccccc3Cl)CC[C@H]21`: 1.37% (inactive).

Regarding `CO[C@H]1CC[C@@H]2CCOc3c(C#N)cccc3C(=O)N(C)C[C@@H](OC)[C@@H](C)C(=O)N(C)C[C@@H]1O2`, the activity change, negative = cytotoxicity was -16.3% (inactive). `COc1ccccc1NC(=O)N[C@H]1CC[C@@H](CCn2cc(-c3ccccc3OC)nn2)O[C@@H]1CO`: the activity change, negative = cytotoxicity was -9.57% (inactive). Same read-out and setting: next, `CCC(C(=O)Nc1c(C)cc(C)cc1C)N1CCCCCC1` (stereo not given): 18.8% (inactive); `CC(C)NC(=O)N(C)C[C@@H]1OCCCC[C@H](C)Oc2ccc(NC(=O)Cc3ccccc3)cc2C(=O)N([C@H](C)CO)C[C@H]1C`: 47.6% (inactive).

Regarding `CCCN1C[C@@H](C)[C@H](OC)CN(C)C(=O)c2ccc(NC(=O)c3cccc(F)c3)cc2OC[C@@H]1C`, the activity change, negative = cytotoxicity was -7.98% (inactive). Turning to `O=C(C[C@@H]1CC[C@H](NC(=O)Cc2ccccn2)[C@@H](CO)O1)NCCc1ccccc1`, the activity change, negative = cytotoxicity was -8.35% (inactive).

For the compound `C[C@@H]1CN([C@@H](C)CO)C(=O)CCCn2cc(nn2)CO[C@@H]1CN(C)C(=O)NC1CCCC1`, the activity change, negative = cytotoxicity was 5.64% (inactive). Same read-out and setting: next, `O=C(CSc1ncnc2c1cnn2-c1ccc(F)cc1)NC1CCCC1`: -30.5% (inactive); `C[C@@H]1CN([C@@H](C)CO)C(=O)c2cc(-c3cncnc3)cnc2O[C@H]1CN(C)C(=O)CN1CCOCC1`: -25.3% (inactive). For `Cc1noc(C)c1NC(=O)Nc1ccc2c(c1)C(=O)N([C@H](C)CO)C[C@@H](C)[C@H](CN(C)C(=O)Nc1ccc(F)cc1)OCCCC[C@@H](C)O2`, the activity change, negative = cytotoxicity was -26.1% (inactive). For `CNC(=O)CSc1ncnc2c1cnn2-c1ccccc1`, the activity change, negative = cytotoxicity was 10.1% (inactive). On the same count and under the same terms, next, `Cc1cccc(NC(=O)C2NC(=O)CC2c2ccccc2)c1C` (stereo not given): 8.03% (inactive). Consider `C[C@H]1CN([C@@H](C)CO)C(=O)c2ccccc2-c2ccccc2CO[C@H]1CN(C)S(=O)(=O)c1cccc(C#N)c1`, for which the activity change, negative = cytotoxicity was -8.25% (inactive). Same read-out and setting: next, `Cc1cccc(C)c1NC(=O)C1(C)CCC(=O)N1CCCn1ccnc1` (stereo not given): -14.5% (inactive); `COc1ccc(-c2cnc3c(c2)C(=O)N([C@@H](C)CO)C[C@@H](C)[C@@H](CN(C)S(C)(=O)=O)O3)cc1`: 6.27% (inactive); `CO[C@H]1CN(C)C(=O)c2cc(NC(=O)C3CC3)ccc2OC[C@@H](C)N(Cc2cncnc2)C[C@H]1C`: -23.3% (inactive).

On to `COc1cc2c(C(=O)N(C)c3cc(Cl)ccc3OC)cn(C)c(=O)c2cc1OC`, for which the activity change, negative = cytotoxicity is -3.77% (inactive). Same read-out and setting: next, `O=C(N[C@H]1CC[C@@H](CCn2cc(-c3ccccc3)nn2)O[C@@H]1CO)c1cnccn1`: 40.7% (inactive); `COc1cccc(S(=O)(=O)Nc2ccc3c(c2)OC[C@@H](C)NC[C@H](C)[C@@H](OC)CN(C)C3=O)c1`: -6.17% (inactive); `O=C(COC(=O)CCC1CCCC1)Nc1nc2c(F)c(F)c(F)cc2s1`: -8.53% (inactive). For `Cc1ccccc1S(=O)(=O)N[C@H]1CC[C@H](CCNS(=O)(=O)c2cccc(F)c2)O[C@H]1CO`, the activity change, negative = cytotoxicity is -6.73% (inactive).

`C[C@H](CO)N1C[C@H](C)[C@@H](CN(C)C(=O)c2cccc(F)c2)Oc2cc(-c3cncnc3)ccc2S1(=O)=O`: the activity change, negative = cytotoxicity is -22.6% (inactive). For `COc1cccc(-c2ccc3c(c2)[C@H]2[C@H](CCN2C(=O)Cc2ccncc2)[C@H](CO)N3C)c1`, the activity change, negative = cytotoxicity was 125% (inactive).

For `Cc1cccc(C)c1NC(=S)NN(Cc1ccccc1)c1ccccc1`, the activity change, negative = cytotoxicity was 15.7% (inactive).
